Values of other authors, collected in US10849867B2, “Methods and compositions for treating conditions associated with an abnormal inflammatory response” (First Wave Bio, Inc., priority 2015, dated 2020).

Conditions: at 20° C.; cited from earlier work

NCCO.O=C(Nc1ccc([N+](=O)[O-])cc1Cl)c1cc(Cl)ccc1O [ethanol amine salt, 5-chloro-N-(2-chloro-4-nitrophenyl)-2-hydroxybenzamide with 2-aminoethanol (1.1)]
dissolves in distilled water: 180 to 280 mg/L
